Experiments:
[1] = 303.1 K; 101.33 kPa; Liquid; pycnometer
[2] = Boiling temperature at pressure P; conditions: 101.3 kPa; Liquid; ebulliometry
[3] = excess molar enthalpy (molar enthalpy of mixing); xn = mol fraction of the nth substance listed; conditions: 298.15 K, 101.3 kPa, Liquid

ClC(Cl)C(Cl)Cl [1,1,2,2-tetrachloroethane]
Conditions | Boiling temperature at pressure P [°C] | mass density [kg/m3]
[1] | – | 1578.58
[2] | 146.20 | –

ClC=C(Cl)Cl [trichloroethene] + CN1CCCC1=O
[3]
Conditions | excess molar enthalpy [kcal/mol]
x1 = 0.0381 | -0.0454
x1 = 0.0886 | -0.106
x1 = 0.1426 | -0.158
x1 = 0.2005 | -0.216
x1 = 0.2675 | -0.276
x1 = 0.3373 | -0.343
x1 = 0.4001 | -0.394
x1 = 0.6547 | -0.343
x1 = 0.7095 | -0.315
x1 = 0.7643 | -0.28
x1 = 0.8186 | -0.23
x1 = 0.873 | -0.176
x1 = 0.9254 | -0.112
x1 = 0.9678 | -0.0504

ClCCCl [1,2-dichloroethane]
Conditions | Boiling temperature at pressure P [°C] | mass density [kg/m3]
[1] | – | 1238.3
[2] | 83.80 | –

ClC(Cl)=C(Cl)Cl [tetrachloroethene]
Conditions | Boiling temperature at pressure P [°C] | mass density [kg/m3]
[1] | – | 1606.4
[2] | 121.00 | –

CN1CCCC1=O [N-methylpyrrolidone]
Conditions | Boiling temperature at pressure P [°C] | mass density [kg/m3]
[1] | – | 1023.4
[2] | 202.30 | –

CC(Cl)(Cl)Cl [1,1,1-trichloroethane] + CN1CCCC1=O
[3]
Conditions | excess molar enthalpy [kcal/mol]
x1 = 0.0303 | -0.0145
x1 = 0.0662 | -0.0323
x1 = 0.1039 | -0.0497
x1 = 0.1525 | -0.0702
x1 = 0.2006 | -0.0895
x1 = 0.2534 | -0.106
x1 = 0.3046 | -0.122
x1 = 0.3555 | -0.133
x1 = 0.4018 | -0.139
x1 = 0.4556 | -0.139
x1 = 0.5054 | -0.139
x1 = 0.5576 | -0.137
x1 = 0.6104 | -0.141
x1 = 0.6634 | -0.141
x1 = 0.7153 | -0.135
x1 = 0.7694 | -0.122
x1 = 0.8172 | -0.117
x1 = 0.8714 | -0.103
x1 = 0.9228 | -0.0783
x1 = 0.9649 | -0.0437

ClC=C(Cl)Cl [trichloroethene]
Conditions | Boiling temperature at pressure P [°C] | mass density [kg/m3]
[1] | – | 1451.2
[2] | 87.10 | –

ClC(Cl)C(Cl)Cl [1,1,2,2-tetrachloroethane] + CN1CCCC1=O
[3]
Conditions | excess molar enthalpy [kcal/mol]
x1 = 0.0331 | -0.113
x1 = 0.0582 | -0.205
x1 = 0.0765 | -0.256
x1 = 0.1279 | -0.426
x1 = 0.1292 | -0.413
x1 = 0.1796 | -0.555
x1 = 0.2318 | -0.704
x1 = 0.2344 | -0.695
x1 = 0.288 | -0.838
x1 = 0.3219 | -0.893
x1 = 0.34 | -0.963
x1 = 0.4028 | -1.01
x1 = 0.4675 | -1.09
x1 = 0.5226 | -1.14
x1 = 0.5688 | -1.16
x1 = 0.5953 | -1.16
x1 = 0.6265 | -1.09
x1 = 0.6815 | -1
x1 = 0.7384 | -0.89
x1 = 0.7933 | -0.742
x1 = 0.8536 | -0.533
x1 = 0.9099 | -0.354
x1 = 0.9574 | -0.179

CC(Cl)(Cl)Cl [1,1,1-trichloroethane]
Conditions | Boiling temperature at pressure P [°C] | mass density [kg/m3]
[1] | – | 1320.94
[2] | 74.20 | –

ClCCCl [1,2-dichloroethane] + CN1CCCC1=O
[3]
Conditions | excess molar enthalpy [kcal/mol]
x1 = 0.0658 | -0.0565
x1 = 0.1316 | -0.11
x1 = 0.1959 | -0.159
x1 = 0.2633 | -0.205
x1 = 0.331 | -0.248
x1 = 0.3947 | -0.282
x1 = 0.4525 | -0.301
x1 = 0.592 | -0.267
x1 = 0.6421 | -0.246
x1 = 0.6925 | -0.217
x1 = 0.7469 | -0.194
x1 = 0.8024 | -0.162
x1 = 0.856 | -0.123
x1 = 0.9111 | -0.0802
x1 = 0.9608 | -0.0403

ClC(Cl)=C(Cl)Cl [tetrachloroethene] + CN1CCCC1=O
[3]
Conditions | excess molar enthalpy [kcal/mol]
x1 = 0.039 | -0.00239
x1 = 0.0887 | -0.00292
x1 = 0.1357 | -0.0012
x1 = 0.2415 | 0.007
x1 = 0.2932 | 0.0137
x1 = 0.3454 | 0.0214
x1 = 0.536 | 0.0623
x1 = 0.6006 | 0.0709
x1 = 0.6688 | 0.0803
x1 = 0.742 | 0.0775
x1 = 0.813 | 0.0706
x1 = 0.8822 | 0.0566
x1 = 0.9441 | 0.0342
